Measurements from PubChem BioAssay (NCI).
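Values below derive from 48-hour exposures of cells grown in 96-well plates, with endpoints linearly interpolated between the two concentrations bracketing the appropriate inhibition level. At the GI50, growth is halved. TGI: concentration producing complete growth inhibition.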

Key:
Experiment in all cases: NCI anticancer screen, dose series, 48 h
[1] = test system: SF-268 CNS
[2] = test system: T-47D breast
[3] = test system: SK-MEL-2 melanoma
[4] = test system: MOLT-4 leukemia
[5] = test system: OVCAR-3 ovarian
[6] = test system: RXF 393 renal
[7] = test system: SR leukemia
[8] = test system: MCF7 breast
[9] = test system: MDA-MB-231 breast
[10] = test system: NCI-H460 lung
[11] = test system: MDA-MB-435
[12] = test system: SN12C renal
[13] = test system: MALME-3M melanoma
[14] = test system: SK-MEL-5 melanoma
[15] = test system: NCI-H23 lung
[16] = test system: COLO 205 colon
[17] = test system: 786-0 renal
[18] = test system: SF-539 CNS
[19] = test system: SW-620 colon
[20] = test system: UACC-62 melanoma
[21] = test system: NCI-H522 lung
[22] = test system: CCRF-CEM leukemia
[23] = test system: SK-OV-3 ovarian
[24] = test system: NCI-H226 lung
[25] = test system: KM12 colon
[26] = test system: OVCAR-8 ovarian
[27] = test system: IGROV1 ovarian
[28] = test system: OVCAR-4 ovarian
[29] = test system: DU-145 prostate
[30] = test system: HCC-2998 colon
[31] = test system: LOX IMVI melanoma
[32] = test system: A498 renal
[33] = test system: TK-10 renal
[34] = test system: SF-295 CNS
[35] = test system: SNB-19 CNS
[36] = test system: CAKI-1 renal
[37] = test system: HS 578T breast
[38] = test system: M14 melanoma
[39] = test system: SNB-75 CNS
[40] = test system: HCT-116 colon
[41] = test system: RPMI-8226 leukemia
[42] = test system: EKVX NSCLC
[43] = test system: ACHN renal
[44] = test system: HL-60(TB) leukemia
[45] = test system: BT-549 breast
[46] = test system: NCI/ADR-RES ovarian
[47] = test system: HOP-62 NSCLC
[48] = test system: U251 CNS
[49] = test system: SK-MEL-28 melanoma
[50] = test system: UO-31 renal
[51] = test system: K-562 leukemia
[52] = test system: HOP-92 NSCLC
[53] = test system: HCT-15 colon
[54] = test system: UACC-257 melanoma
[55] = test system: PC-3 prostate
[56] = test system: A549 NSCLC
[57] = test system: OVCAR-5 ovarian

## CNC(=O)c1cc(Oc2ccc3nc(NC(=O)Nc4ccc(Cl)c(Cl)c4)sc3c2)ccn1
[1]
  GI50: 1.98 µM
  TGI: 4.21 µM
[2]
  GI50: 2.65 µM
  TGI: 6.36 µM
[3]
  GI50: 2.56 µM
  TGI: 5.97 µM
[4]
  GI50: > 100 µM
  TGI: > 100 µM
[5]
  GI50: 2.31 µM
  TGI: 5.38 µM
[6]
  GI50: 1.84 µM
  TGI: 3.65 µM
[7]
  GI50: 6.47 µM
  TGI: > 100 µM
[8]
  GI50: 2.65 µM
  TGI: > 100 µM
[9]
  GI50: 2.15 µM
  TGI: 6.43 µM
[10]
  GI50: 2.43 µM
  TGI: 5.32 µM
[11]
  GI50: 2.02 µM
  TGI: 4.62 µM
[12]
  GI50: 3.92 µM
  TGI: > 100 µM
[13]
  GI50: 1.51 µM
  TGI: 3.3 µM
[14]
  GI50: 2.24 µM
  TGI: 5.58 µM
[15]
  GI50: 2.78 µM
  TGI: > 100 µM
[16]
  GI50: 4.25 µM
  TGI: > 100 µM
[17]
  GI50: 2.26 µM
  TGI: 5.11 µM
[18]
  GI50: 2.17 µM
  TGI: 4.69 µM
[19]
  GI50: 8.11 µM
  TGI: > 100 µM
[20]
  GI50: 2.32 µM
  TGI: 7.76 µM
[21]
  GI50: 4.09 µM
  TGI: > 100 µM
[22]
  GI50: > 100 µM
  TGI: > 100 µM
[23]
  GI50: 2.24 µM
  TGI: 4.09 µM
[24]
  GI50: 2.28 µM
  TGI: 4.58 µM
[25]
  GI50: 3 µM
  TGI: > 100 µM
[26]
  GI50: 2.36 µM
  TGI: 5.27 µM
[27]
  GI50: 2.55 µM
  TGI: 6.75 µM
[28]
  GI50: 2.06 µM
  TGI: 4.03 µM
[29]
  GI50: 2.45 µM
  TGI: 6.29 µM
[30]
  GI50: 5.04 µM
  TGI: > 100 µM
[31]
  GI50: 1.82 µM
  TGI: 3.52 µM
[32]
  GI50: 2.93 µM
  TGI: 6.64 µM
[33]
  GI50: 3.46 µM
  TGI: 9.26 µM
[34]
  GI50: 1.53 µM
  TGI: 3.13 µM
[35]
  GI50: 1.99 µM
  TGI: 3.98 µM
[36]
  GI50: 2.46 µM
  TGI: 6.3 µM
[37]
  GI50: 2.77 µM
  TGI: 6.66 µM
[38]
  GI50: 2.13 µM
  TGI: 4.74 µM
[39]
  GI50: 1.73 µM
  TGI: 3.61 µM
[40]
  GI50: 1.88 µM
  TGI: 4.35 µM
[41]
  GI50: 3.66 µM
  TGI: > 100 µM
[42]
  GI50: 3.3 µM
  TGI: > 100 µM
[43]
  GI50: 2.1 µM
  TGI: 5.56 µM
[44]
  GI50: > 100 µM
  TGI: > 100 µM
[45]
  GI50: 4.88 µM
  TGI: > 100 µM
[46]
  GI50: 2.3 µM
  TGI: 5.09 µM
[47]
  GI50: 2.24 µM
  TGI: 4 µM
[48]
  GI50: 1.83 µM
  TGI: 3.46 µM
[49]
  GI50: 1.74 µM
  TGI: 3.56 µM
[50]
  GI50: 2.08 µM
  TGI: 3.96 µM
[51]
  GI50: > 100 µM
  TGI: > 100 µM
[52]
  GI50: 2.66 µM
  TGI: 5.39 µM
[53]
  GI50: 3.71 µM
  TGI: > 100 µM

## CCOC(=O)[C@H]1C[C@@H](C(=O)c2ccccc2)N2N=C(c3ccc(Br)cc3)C=C[C@H]12
[1]
  TGI: > 100 µM
[2]
  TGI: > 100 µM
[54]
  TGI: > 100 µM
[3]
  TGI: > 100 µM
[4]
  TGI: > 100 µM
[5]
  TGI: > 100 µM
[55]
  TGI: > 100 µM
[6]
  TGI: > 100 µM
[7]
  TGI: > 100 µM
[8]
  TGI: > 100 µM
[9]
  TGI: > 100 µM
[10]
  TGI: > 100 µM
[11]
  TGI: > 100 µM
[12]
  TGI: > 100 µM
[15]
  TGI: > 100 µM
[16]
  TGI: > 100 µM
[17]
  TGI: > 100 µM
[19]
  TGI: > 100 µM
[56]
  TGI: > 100 µM
[20]
  TGI: > 100 µM
[23]
  TGI: > 100 µM
[24]
  TGI: > 100 µM
[25]
  TGI: > 100 µM
[26]
  TGI: > 100 µM
[28]
  TGI: > 100 µM
[29]
  TGI: > 100 µM
[30]
  TGI: > 100 µM
[31]
  TGI: > 100 µM
[32]
  TGI: > 100 µM
[33]
  TGI: > 100 µM
[34]
  TGI: > 100 µM
[35]
  TGI: > 100 µM
[36]
  TGI: > 100 µM
[37]
  TGI: > 100 µM
[38]
  TGI: > 100 µM
[39]
  TGI: > 100 µM
[40]
  TGI: > 100 µM
[41]
  TGI: > 100 µM
[43]
  TGI: > 100 µM
[45]
  TGI: > 100 µM
[46]
  TGI: > 100 µM
[57]
  TGI: > 100 µM
[47]
  TGI: > 100 µM
[48]
  TGI: > 100 µM
[49]
  TGI: > 100 µM
[50]
  TGI: > 100 µM
[51]
  TGI: > 100 µM
[53]
  TGI: > 100 µM
